Activity calls are given as the source filed them.

Assay [1] is described as follows: blockers of HIV-1 envelope-mediated cell-cell fusion – cherry-pick, dose response (AID 652057). The class given is functional, cell-based.
Assay [2] can be described thus: viability loss in CEM21 cells – cell-based, CellTiter-Glo luminescence, cherry-picked, cytotoxicity control for viral fusion inhibitor project, dose response (AID 652042).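 Note: potency for signal decrease meaning cytotoxicity.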 The assay is classed as functional.
Assay [3] in a line: HIV-1 AD8 envelope cell-cell fusion blockers – cherry-pick, dose response (AID 652062).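 Note: luciferase signal from cell-cell fusion driven by HIV-1 clade B AD8 Env; potency is for inhibitors of fusion seen as a drop in luminescence.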 The class given is functional, cell-based.
Assay [4] in a line: cells. The assay is classed as functional, cell-based.
The target of assay [5] is T1, Nuclear receptor subfamily 0 group B member 1 (Homo sapiens, UniProt P51843).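 Note: HEK293T cells transfected with SF-1 and DAX-1 plus StAR promoter luciferase reporter.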
T1 sequence (P51843 whole entry): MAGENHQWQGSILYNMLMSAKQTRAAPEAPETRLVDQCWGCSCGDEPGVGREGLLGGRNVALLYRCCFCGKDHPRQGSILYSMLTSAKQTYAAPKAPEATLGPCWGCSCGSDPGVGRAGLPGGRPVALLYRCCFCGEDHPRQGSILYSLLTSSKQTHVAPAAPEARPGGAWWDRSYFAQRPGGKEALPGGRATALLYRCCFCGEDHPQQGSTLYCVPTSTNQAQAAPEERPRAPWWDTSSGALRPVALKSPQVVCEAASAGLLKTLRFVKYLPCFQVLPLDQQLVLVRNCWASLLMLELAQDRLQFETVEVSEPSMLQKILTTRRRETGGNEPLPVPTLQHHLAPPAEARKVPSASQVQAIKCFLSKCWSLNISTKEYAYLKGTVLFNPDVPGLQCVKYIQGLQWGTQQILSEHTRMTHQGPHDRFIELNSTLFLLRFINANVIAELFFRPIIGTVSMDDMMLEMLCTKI
The class given is functional, cell-based.

Assay [6] deals with T2, Small ubiquitin-related modifier 1 (Homo sapiens, UniProt P63165). Put plainly: SUMO1 protein interaction blockers, potency – biochemical, fluorescence polarization, uHTS hits, dose response (AID 624382). The conditions noted are these: read-out: IC50_Mean. The assay is classed as functional.
Assay [7] addresses T2, Small ubiquitin-related modifier 1. The assay can be described thus: SUMO1 protein-protein binding blockers, potency – biochemical, FRET, dose response (AID 624383). Conditions: read-out: IC50_Mean. The class given is functional.
The target in assay [8] is T3, DNA repair protein RAD52 homolog (Homo sapiens, UniProt P43351).
T3 sequence (P43351 whole entry): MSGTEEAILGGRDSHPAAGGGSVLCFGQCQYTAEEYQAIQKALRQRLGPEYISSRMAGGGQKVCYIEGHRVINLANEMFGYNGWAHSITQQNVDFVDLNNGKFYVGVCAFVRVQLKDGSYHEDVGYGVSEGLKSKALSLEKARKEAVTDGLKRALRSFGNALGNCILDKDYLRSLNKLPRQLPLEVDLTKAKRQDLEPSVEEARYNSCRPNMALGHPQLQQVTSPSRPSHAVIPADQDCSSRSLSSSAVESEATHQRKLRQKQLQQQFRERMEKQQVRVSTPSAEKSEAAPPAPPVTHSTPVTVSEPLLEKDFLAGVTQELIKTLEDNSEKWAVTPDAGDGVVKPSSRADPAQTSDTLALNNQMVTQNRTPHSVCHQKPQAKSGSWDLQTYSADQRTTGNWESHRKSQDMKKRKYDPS
The assay is classed as functional, biochemical.

Assay [9] has as its target Mu-type opioid receptor (Homo sapiens, UniProt P35372). The assay is classed as functional, cell-based.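 Note: U2OS cells with beta-arrestin recruitment to OPRM1 by beta-gal complementation.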
The target of assay [10] is 5-hydroxytryptamine receptor 2A (Mus musculus, UniProt P35363). The class given is functional, cell-based.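 Note: CHO-K1 cells with tagged receptor and beta-arrestin; agonist potency measured as compound-induced activation of the receptor.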
Assay [11] concerns the target T4, Long-chain-fatty-acid--AMP ligase FadD28 (Mycobacterium tuberculosis, UniProt P9WQ59).
T4 sequence (P9WQ59 whole entry): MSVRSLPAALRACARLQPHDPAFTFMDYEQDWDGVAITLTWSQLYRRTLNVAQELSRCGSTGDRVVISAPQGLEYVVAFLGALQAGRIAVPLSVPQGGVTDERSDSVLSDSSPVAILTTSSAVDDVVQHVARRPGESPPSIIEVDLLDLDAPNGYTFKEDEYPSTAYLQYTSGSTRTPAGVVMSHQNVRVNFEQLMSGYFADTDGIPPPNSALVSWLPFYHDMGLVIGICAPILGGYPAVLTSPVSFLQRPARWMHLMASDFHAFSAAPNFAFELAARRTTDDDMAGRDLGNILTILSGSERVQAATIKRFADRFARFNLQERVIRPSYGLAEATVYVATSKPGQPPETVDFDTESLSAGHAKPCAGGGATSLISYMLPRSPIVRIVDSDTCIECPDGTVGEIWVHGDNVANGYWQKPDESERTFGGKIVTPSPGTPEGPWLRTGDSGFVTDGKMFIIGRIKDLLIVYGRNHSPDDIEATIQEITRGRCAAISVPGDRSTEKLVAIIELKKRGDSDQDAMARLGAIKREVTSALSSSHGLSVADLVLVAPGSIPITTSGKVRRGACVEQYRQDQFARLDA
The assay can be described thus: Fluorescence polarization aasay to screen for inhibitors that compete for the binding of FadD28 to a bisubstrate Measured in Biochemical System Using Plate Reader - 2147-01_Inhibitor_Dose_CherryPick_Activity. The assay is classed as functional, Mycobacterium tuberculosis H37Rv.

The target in assay [12] is Beta-lactamase (Salmonella choleraesuis (strain SC-B67), UniProt Q5J463). The assay can be described thus: Epi-absorbance-based counterscreen for selective VIM-2 inhibitors: dose response biochemical high throughput screening assay to identify inhibitors of TEM-1 serine-beta-lactamase.
The target in assay [13] is T5, Beta-lactamase (Pseudomonas aeruginosa, UniProt Q79MP6). Put plainly: inhibition of IMP-1 beta-lactamase activity – biochemical, epi-absorbance, selectivity assay for VIM-2 inhibitor project, dose response (AID 1920).
Assay [14] has as its target T5, Beta-lactamase. Put plainly: […] counterscreen for selective VIM-2 inhibitors: dose response biochemical high throughput screening assay to identify inhibitors of IMP-1 metallo-beta-lactamase.
Assay [15] in a line: luciferase reporter signal suppression in cells – H4 neuroglioma cells, luminescence, dose response (AID 1990). The class given is functional, cell-based.
Assay [16] can be described thus: Luminescence Cell-Based Dose Response HTS to Identify Inhibitors of 5'UTR Stem-Loop Driven Prion Protein mRNA Translation in H4 Neuroglioblastoma Cells. [Related pubchem assays: 1827 (Project Summary), 1813 (Primary HTS)]. The class given is functional.
Assay [17] can be described thus: alpha-synuclein stem-loop luciferase translation blockers – H4 neuroglioma cells, luminescence, confirmation (AID 1988). The class given is functional, cell-based.
Assay [18] in a line: blockers of HIV-1 ZM109 envelope-driven cell-cell fusion – HeLa effector, CEM target cells, luciferase, cherry-pick, dose response (AID 652058).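 Note: luciferase signal from HIV-1 Env mediated cell-cell fusion of effector and target cells.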 The assay is classed as functional, cell-based.
Assay [19] is described as follows: off-target signal loss in HeLa-CEM21 co-culture – HeLa F-luc CTL cells, cherry-picked, counter-screen for HIV-1 Env fusion inhibitor project, dose response (AID 652040).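 Note: potency for signal decrease marking cytotoxic or nonspecific inhibition.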 The assay is classed as functional, cell-based.
Assay [20] deals with Photoreceptor-specific nuclear receptor (Homo sapiens, UniProt Q9Y5X4). The assay is classed as functional, cell-based.
The target of assay [21] is SWI/SNF-related matrix-associated actin-dependent regulator of chromatin subfamily A member 2 (Homo sapiens, UniProt P51531). The assay can be described thus: Luminescence-based cell-based high throughput dose response assay to identify activators of the function of SWI/SNF related, matrix associated, actin dependent regulator of chromatin, subfamily a, member 2 (SMARCA2, BRM). The assay is classed as functional.

A short description of assay [22]: Counterscreen for activators of the function of SWI/SNF related, matrix associated, actin dependent regulator of chromatin, subfamily a, member 2 (SMARCA2, BRM): Luminescence-based cell-based high throughput dose response assay to identify non-selective compounds using the VP16 reporter assay. The assay is classed as functional.
Assay [23] in a line: A549 cell cytotoxicity, dose response, cytotoxicity control, plate reader, cherry-pick, antagonist series (AID 743412). The class given is functional, cell-based.
Assay [24] can be described thus: toxicity toward HepG2 liver cells – cell-based, plate reader, cherry-pick, antagonist series, cytotoxicity control, dose response (AID 743416). The assay is classed as functional.
Assay [25] is described as follows: blockers of bursicon-stimulated LGR2 cAMP reporter – cell-based, HEK293, CRE-luciferase reporter, cherry pick, set 2, dose response (AID 743343).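 Note: transfected cells were stimulated with diluted bursicon conditioned medium after compound addition.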 The class given is functional.
A short description of assay [26]: blockade of melanocortin 4 receptor signaling – cell-based, plate reader, cherry pick, counter-screen for LGR2 antagonist project, dose response (AID 743444).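 Note: transfected HEK 293 cells stimulated with alpha-MSH peptide; potency of inhibitors of the alpha-MSH evoked signal.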 The assay is classed as functional.
A short description of assay [27]: viability loss in HEK293 cells – cell-based, plate reader, cherry-picked samples, cytotoxicity control, dose response (AID 743446). The assay is classed as functional.
Assay [28] addresses Luciferin 4-monooxygenase (Photinus pyralis, UniProt P08659). The assay can be described thus: inhibition of purified Photinus pyralis luciferase – biochemical, luminescence, dose response (AID 1891).
Assay [29] in a line: Luminescence Cell-Based Dose Confirmation HTS to Identify Inhibitors of Platelet Dense Granule Release. [Related pubchem assays: 1663 (Primary HTS), 1678 (Summary of Project)]. The assay is classed as functional.

Mu-type opioid receptor, sequence (P35372 whole entry): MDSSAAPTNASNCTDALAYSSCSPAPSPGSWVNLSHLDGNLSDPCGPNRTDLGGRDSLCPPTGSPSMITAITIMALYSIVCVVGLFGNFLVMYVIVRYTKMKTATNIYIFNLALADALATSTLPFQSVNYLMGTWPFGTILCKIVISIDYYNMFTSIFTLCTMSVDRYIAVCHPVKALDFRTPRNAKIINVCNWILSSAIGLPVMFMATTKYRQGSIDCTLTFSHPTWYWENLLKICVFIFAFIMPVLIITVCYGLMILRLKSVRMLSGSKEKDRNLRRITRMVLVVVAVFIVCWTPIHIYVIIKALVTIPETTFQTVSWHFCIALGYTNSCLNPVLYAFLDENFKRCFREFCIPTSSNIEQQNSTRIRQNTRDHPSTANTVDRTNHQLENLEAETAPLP
5-hydroxytryptamine receptor 2A, sequence (P35363 whole entry): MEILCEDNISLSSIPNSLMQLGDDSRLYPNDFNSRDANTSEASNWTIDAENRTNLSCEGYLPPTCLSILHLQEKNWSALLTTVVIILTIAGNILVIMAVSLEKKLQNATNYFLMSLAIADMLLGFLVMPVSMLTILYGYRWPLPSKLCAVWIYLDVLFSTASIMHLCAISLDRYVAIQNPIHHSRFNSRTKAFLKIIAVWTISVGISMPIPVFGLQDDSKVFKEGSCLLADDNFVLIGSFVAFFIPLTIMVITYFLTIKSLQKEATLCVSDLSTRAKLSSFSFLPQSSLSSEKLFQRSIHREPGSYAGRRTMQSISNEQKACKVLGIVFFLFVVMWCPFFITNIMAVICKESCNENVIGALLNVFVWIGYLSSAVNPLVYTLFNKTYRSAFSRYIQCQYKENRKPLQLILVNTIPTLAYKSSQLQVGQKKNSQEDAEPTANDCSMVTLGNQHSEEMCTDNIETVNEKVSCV
T5 sequence (Q79MP6 whole entry): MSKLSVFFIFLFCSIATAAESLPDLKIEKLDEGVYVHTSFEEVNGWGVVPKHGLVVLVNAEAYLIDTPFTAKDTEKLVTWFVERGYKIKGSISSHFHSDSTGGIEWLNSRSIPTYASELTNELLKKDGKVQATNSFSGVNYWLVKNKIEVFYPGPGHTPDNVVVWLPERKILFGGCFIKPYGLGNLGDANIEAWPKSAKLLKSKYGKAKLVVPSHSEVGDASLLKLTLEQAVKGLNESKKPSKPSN
Beta-lactamase (Salmonella choleraesuis (strain SC-B67), UniProt Q5J463), sequence (Q5J463 whole entry): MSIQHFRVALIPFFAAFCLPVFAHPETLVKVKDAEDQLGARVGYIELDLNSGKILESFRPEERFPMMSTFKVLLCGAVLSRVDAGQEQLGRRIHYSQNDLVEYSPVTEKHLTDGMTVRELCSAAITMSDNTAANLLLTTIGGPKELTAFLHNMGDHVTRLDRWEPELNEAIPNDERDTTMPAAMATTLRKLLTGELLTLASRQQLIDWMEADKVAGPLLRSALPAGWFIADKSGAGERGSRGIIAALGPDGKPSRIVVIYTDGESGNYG
T2 sequence (P63165 whole entry): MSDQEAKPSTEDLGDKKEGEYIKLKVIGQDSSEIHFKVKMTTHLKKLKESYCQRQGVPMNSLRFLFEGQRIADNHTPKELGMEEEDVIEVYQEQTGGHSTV
SWI/SNF-related matrix-associated actin-dependent regulator of chromatin subfamily A member 2, sequence (P51531 whole entry): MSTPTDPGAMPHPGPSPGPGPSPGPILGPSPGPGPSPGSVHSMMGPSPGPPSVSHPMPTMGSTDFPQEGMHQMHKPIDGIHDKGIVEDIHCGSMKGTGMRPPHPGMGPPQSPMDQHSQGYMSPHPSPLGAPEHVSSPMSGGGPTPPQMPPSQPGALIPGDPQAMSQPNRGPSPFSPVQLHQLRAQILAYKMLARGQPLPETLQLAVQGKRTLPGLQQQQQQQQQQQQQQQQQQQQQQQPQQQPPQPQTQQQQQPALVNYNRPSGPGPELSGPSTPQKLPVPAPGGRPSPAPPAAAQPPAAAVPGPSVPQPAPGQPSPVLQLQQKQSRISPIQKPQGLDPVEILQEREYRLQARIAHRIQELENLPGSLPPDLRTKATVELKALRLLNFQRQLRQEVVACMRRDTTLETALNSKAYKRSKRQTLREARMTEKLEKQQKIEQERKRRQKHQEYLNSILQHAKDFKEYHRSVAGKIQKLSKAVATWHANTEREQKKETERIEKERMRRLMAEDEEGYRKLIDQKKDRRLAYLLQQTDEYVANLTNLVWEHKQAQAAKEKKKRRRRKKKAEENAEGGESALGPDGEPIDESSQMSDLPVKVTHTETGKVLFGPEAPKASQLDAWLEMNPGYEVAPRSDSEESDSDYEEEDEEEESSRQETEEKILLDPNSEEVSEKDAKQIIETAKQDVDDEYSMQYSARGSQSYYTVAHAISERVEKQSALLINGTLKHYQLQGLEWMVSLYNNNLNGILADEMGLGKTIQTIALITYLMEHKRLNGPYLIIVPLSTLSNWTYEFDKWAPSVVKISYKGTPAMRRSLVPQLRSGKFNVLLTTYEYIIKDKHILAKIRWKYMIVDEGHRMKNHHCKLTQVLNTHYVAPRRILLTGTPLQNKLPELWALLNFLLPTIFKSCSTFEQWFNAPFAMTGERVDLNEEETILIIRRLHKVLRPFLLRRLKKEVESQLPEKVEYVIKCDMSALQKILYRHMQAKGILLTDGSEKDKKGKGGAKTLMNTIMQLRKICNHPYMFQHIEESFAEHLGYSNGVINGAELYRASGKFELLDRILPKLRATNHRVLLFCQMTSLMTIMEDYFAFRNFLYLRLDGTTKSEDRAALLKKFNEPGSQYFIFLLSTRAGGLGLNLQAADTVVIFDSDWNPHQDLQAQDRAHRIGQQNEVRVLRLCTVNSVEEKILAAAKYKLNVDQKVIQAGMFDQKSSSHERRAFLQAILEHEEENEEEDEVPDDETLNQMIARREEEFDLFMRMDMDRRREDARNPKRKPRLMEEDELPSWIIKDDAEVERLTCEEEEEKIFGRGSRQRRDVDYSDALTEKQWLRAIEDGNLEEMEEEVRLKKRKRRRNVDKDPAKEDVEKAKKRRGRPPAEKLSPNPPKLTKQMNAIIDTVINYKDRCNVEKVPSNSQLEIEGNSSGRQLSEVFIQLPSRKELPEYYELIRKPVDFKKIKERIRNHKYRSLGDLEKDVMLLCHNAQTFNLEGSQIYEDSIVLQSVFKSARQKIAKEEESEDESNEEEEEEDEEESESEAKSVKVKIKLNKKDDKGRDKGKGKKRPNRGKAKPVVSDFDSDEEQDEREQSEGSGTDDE
Photoreceptor-specific nuclear receptor, sequence (Q9Y5X4 whole entry): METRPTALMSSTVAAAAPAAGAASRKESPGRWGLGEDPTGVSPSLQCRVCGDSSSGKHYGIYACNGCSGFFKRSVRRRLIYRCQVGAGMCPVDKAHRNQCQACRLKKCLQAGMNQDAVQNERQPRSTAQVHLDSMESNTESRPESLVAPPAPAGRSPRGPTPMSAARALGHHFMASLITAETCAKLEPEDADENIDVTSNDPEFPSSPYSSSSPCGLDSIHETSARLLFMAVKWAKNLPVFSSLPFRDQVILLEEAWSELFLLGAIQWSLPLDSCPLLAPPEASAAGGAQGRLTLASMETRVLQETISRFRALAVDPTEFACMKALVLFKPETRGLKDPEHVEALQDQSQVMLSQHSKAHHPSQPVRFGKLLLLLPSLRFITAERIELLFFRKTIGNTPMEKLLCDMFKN
Luciferin 4-monooxygenase, sequence (P08659 whole entry): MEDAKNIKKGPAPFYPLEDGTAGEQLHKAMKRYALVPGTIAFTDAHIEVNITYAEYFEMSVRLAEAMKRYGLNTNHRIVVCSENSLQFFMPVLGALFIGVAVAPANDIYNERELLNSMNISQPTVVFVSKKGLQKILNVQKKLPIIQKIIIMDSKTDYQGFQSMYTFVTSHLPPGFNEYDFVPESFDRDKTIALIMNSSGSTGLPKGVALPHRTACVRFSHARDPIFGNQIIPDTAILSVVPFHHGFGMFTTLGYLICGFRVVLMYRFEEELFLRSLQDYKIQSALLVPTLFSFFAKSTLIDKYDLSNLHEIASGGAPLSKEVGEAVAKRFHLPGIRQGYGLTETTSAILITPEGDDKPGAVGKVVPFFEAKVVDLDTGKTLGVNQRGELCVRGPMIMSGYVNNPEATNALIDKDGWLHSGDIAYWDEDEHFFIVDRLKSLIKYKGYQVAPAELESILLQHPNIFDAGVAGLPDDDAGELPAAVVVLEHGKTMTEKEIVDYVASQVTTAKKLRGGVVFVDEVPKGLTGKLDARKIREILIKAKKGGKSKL

On to `Cn1c(=O)c2c(nc(NCCc3ccccc3)n2Cc2ccccc2)n(C)c1=O`, for which the AC50 is 30.8 µM (active) in assay [1], 49.1 µM (active) in assay [2] and 12 µM (active) in [3].
On to `O=C(Nc1ccccc1Cl)NC1CCCCCCC1`, for which the IC50 in [4] and in [5] was > 67.5 µM (inactive) throughout.
For `COc1ccc(Cl)cc1Nc1nc(-c2sc(NC(=O)CC(C)C)nc2C)cs1`, the IC50 is > 66.6 µM (inactive) in assay [6] and 14.8 µM (active) in [7].
In the case of `COc1ccc(/C=C2\Sc3ccc(C(=O)NCCCN4CCCC4)cc3N(C)C2=O)cc1OC`, the IC50 in assay [4] and in [5] was > 67.5 µM (inactive) throughout. Besides, in assay [8], the AC50 is 3.69 µM (active).
As to `Cc1ccc(CN2CCN(c3ncccn3)CC2)c(C)c1`, the EC50 was 92.4 µM (inactive) in [9] and 0.337 µM (active) in assay [10].
Consider `CCCC(=O)C1=C(c2ccccc2)C(C#N)(C#N)C(C#N)=C1N`, for which the AC50 in assay [11] was 32 µM (inactive).
As for `Cc1cc(OCC(=O)N2CCC[C@@H]2C(=O)O)c2c(C)c(C)c(=O)oc2c1`, the IC50 in assay [12], in assay [13] and in assay [14] was > 59.6 µM (inactive) each time.
Consider `Cc1c(OCC(=O)N2CCC[C@@H]2C(=O)O)ccc2c3c(c(=O)oc12)CCC3`, for which the IC50 in assay [12], in assay [13] and in assay [14] was > 59.6 µM (inactive) in each case.
Regarding `CC1(C)C(C=C(Cl)Cl)C1C(=O)N1CCN(Cc2ccccc2)CC1` (stereo unspecified), the EC50 in assay [9] is 92.5 µM (inactive); in [10], 1.21 µM (active).
As for `O=C(CCN1CCN(c2ccccc2F)CC1)Nc1ccc2c(c1)OCO2`, the EC50 in [15] is > 120 µM (not active); in [16], > 120 µM (not active); in [17], > 120 µM (not active); in assay [9], 92.5 µM (inactive); in assay [10] it was 76.1 µM (inactive).
`C/C=C1\COC(C(=O)NCc2cccc(OC)c2OC)(C(F)(F)F)C=C1C=C1CCCCC1` (stereo unspecified): the AC50 was 19.8 µM (active) in assay [1]; 22.3 µM (active) in [2]; 9 µM (active) in assay [18]; 50.1 µM (active) in assay [19]; 35.6 µM (active) in assay [3].
Turning to `COc1cccc(N2CCN(c3nc(O)cc(-c4ccccc4C)n3)CC2)c1`, the IC50 in assay [20] is 94.2 nM (active). The EC50 in [21] and in assay [22] was > 91.2 µM (inactive) throughout.
With `COc1ccc(-n2nnnc2C(c2cccc(OC)c2OC)N2CCC(n3c(O)nc4ccccc43)CC2)cc1` (stereo unspecified), the AC50 in assay [23] was 25.6 µM (active); in [24] it was > 52 µM (inactive); in [25], 17.6 µM (active); in assay [26], 21.5 µM (active); in assay [27] it was 17.6 µM (active).
Take `O=C(O)Cn1cccc1C(=O)c1ccccc1`: the IC50 in assay [12], in [13] and in [14] was > 59.6 µM (inactive) throughout.
In the case of `C=C[C@@]1(C)CC(=O)[C@]2(O)[C@@]3(C)[C@@H](O)CCC(C)(C)[C@@H]3[C@H](O)[C@H](OC(C)=O)[C@@]2(C)O1` [COLFORSIN], the EC50 in assay [28] was > 112 µM (not active); in [29], < 88 nM (active). The values for the IC50 in [4] and in [5] were > 67.5 µM (inactive) and 1.73 µM (active), respectively.

For the origin of these results see ChEMBL document CHEMBL1201862, “PubChem BioAssay data set” (2004).
